Measurements reported in patent US6908935B2, “Calcium receptor modulating agents” (Amgen Inc., priority 2002, dated 2005).

Target: T1, human parathyroid cell Ca^2+ receptor (hPCaR) (Homo sapiens, UniProt P41180)
T1 construct: expressed in transfected cells
T1 sequence (P41180 20-1078): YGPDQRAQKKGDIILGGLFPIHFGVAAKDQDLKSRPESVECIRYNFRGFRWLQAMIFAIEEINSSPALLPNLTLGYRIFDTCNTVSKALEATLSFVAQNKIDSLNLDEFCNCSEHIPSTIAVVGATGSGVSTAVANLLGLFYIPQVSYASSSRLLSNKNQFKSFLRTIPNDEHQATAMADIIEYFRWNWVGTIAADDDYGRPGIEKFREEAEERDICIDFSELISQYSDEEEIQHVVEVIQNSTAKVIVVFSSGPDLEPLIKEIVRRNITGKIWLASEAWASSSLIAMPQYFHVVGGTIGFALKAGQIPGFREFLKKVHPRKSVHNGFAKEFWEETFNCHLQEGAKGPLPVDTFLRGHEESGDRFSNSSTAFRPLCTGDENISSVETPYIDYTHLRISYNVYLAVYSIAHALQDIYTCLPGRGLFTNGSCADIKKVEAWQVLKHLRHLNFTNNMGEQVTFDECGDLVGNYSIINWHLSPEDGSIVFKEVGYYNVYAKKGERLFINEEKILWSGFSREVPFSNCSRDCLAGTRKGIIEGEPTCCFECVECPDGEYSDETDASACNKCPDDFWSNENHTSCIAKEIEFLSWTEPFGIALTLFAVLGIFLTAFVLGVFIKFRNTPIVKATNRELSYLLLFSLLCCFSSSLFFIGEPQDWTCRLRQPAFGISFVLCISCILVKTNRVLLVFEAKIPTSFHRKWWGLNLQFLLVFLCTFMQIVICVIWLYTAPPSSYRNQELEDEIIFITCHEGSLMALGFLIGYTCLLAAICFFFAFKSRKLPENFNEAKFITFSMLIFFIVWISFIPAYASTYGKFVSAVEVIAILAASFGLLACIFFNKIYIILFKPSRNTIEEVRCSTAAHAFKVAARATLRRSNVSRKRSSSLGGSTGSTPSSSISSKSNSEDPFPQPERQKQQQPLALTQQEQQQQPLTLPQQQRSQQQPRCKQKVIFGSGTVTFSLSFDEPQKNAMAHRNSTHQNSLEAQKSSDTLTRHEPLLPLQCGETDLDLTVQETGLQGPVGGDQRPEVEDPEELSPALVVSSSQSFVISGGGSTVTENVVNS
Assay: [Ca2+]i measurement with fluo-3 in HEK 293 4.0-7 cells stably transfected with hPCaR
Format: cell-based
Conditions: fluo-3 fluorescence (485/530 nm), effect on [Ca^2+]i
Method: The activities of the compounds of the present invention on calcium receptors were measured. In one embodiment, the measurement was performed in accordance with the method described in Example 4 of Nemeth et al., PCT/US95/13704 (International Publication No. WO96/12697) herein incorporated by reference.
A 4.0-kb NotI-HindIII fragment of the human parathyroid cell Ca^2+ receptor (hPCaR) cDNA was subcloned into the mammalian expression vector pCEP4 (Invitrogen) containing the hygromycin-resistant gene as a selectable marker. This plasmid was transfected into HEK 293 cells by calcium phosphate precipitation. Transfected cells were grown in Dulbecco's modified Eagle's medium containing 10% fetal bovine serum and hygromycin (200 μg/mL). Hygromycin-resistant colonies were subcloned and assayed for hPCaR mRNA by solution hybridization using a ^32P-labeled RNA probe complementary to the (4.0 kb) hPCaR sequence (Garrett, et al., J. Biol. Chem. 270, 12919-12925 (1995)). Clone 7 was used to assess the effects of compounds on [Ca^2+]i. This stably transfected cell line is termed HEK 293 4.0-7. For measurements of [Ca^2+]i, the cells were recovered from tissue culture flasks by brief treatment with 0.02% EDTA and then washed and resuspended in PCB containing 1 mM CaCl2 and 0.1% Bovine Serum Albumin (“BSA”). The cells were loaded with fluo-3 by incubation for 30 min at 37° C., with parathyroid cell buffer (126 mM NaCl, 4 mM KCl, 1 mM MgSO4, 0.7 mM K2HPO/KH2PO4, 20 mM HEPES.NaOH (pH 7.45)) containing 0.5% BSA in lmM CaCl2 and 2 μM fluo-3 acetoxymethyl ester. The cells were subsequently washed, each test compound was added to the cells and the fluorescence was recorded by using excitation and emission wavelengths of 485 and 530 nm, respectively.

EC50 [µM]	SMILES
≤ 10	COc1ccc(CN[C@H](C)c2cccc(Cl)c2)cc1-c1ccccc1 [(1R)-1-(3-chlorophenyl)-N-((6-(methyloxy)-1,1′-biphenyl-3-yl)methyl)ethanamine]
≤ 10	COc1ccc(CN[C@H](C)c2cccc(Cl)c2)cc1-c1ccc(C(F)(F)F)cc1 [(1R)-1-(3-chlorophenyl)-N-((6-(methyloxy)-4′-(trifluoromethyl)-1,1′-biphenyl-3-yl)methyl)ethanamine]
≤ 10	COc1ccc(CN[C@H](C)c2cccc(F)c2)cc1-c1ccccc1 [(1R)-1-(3-fluorophenyl)-N-((6-(methyloxy)-1,1′-biphenyl-3-yl)methyl)ethanamine]
≤ 10	COc1ccc(CN[C@H](C)c2cccc(F)c2)cc1-c1ccc(S(C)(=O)=O)cc1 [(1R)-1-(3-fluorophenyl)-N-((6-(methyloxy)-4′-(methylsulfonyl)-1,1′-biphenyl-3-yl)methyl)ethanamine]
≤ 10	COc1ccc(CN[C@H](C)c2cccc(F)c2)cc1-c1ccc(C(F)(F)F)cc1 [(1R)-1-(3-fluorophenyl)-N-((6-(methyloxy)-4′-(trifluoromethyl)-1,1′-biphenyl-3-yl)methyl)ethanamine]
≤ 10	COc1ccc([C@@H](C)NCc2cccc(-c3cnccn3)c2)cc1 [(1R)-1-(4-(methyloxy)phenyl)-N-((3-(2-pyrazinyl)phenyl)methyl)ethanamine]
≤ 10	COc1ccc([C@@H](C)NCc2cccc(-c3ccccn3)c2)cc1 [(1R)-1-(4-(methyloxy)phenyl)-N-((3-(2-pyridinyl)phenyl)methyl)ethanamine]
≤ 10	COc1ccc([C@@H](C)NCc2cccc(-c3ccc(OC)nn3)c2)cc1 [(1R)-1-(4-(methyloxy)phenyl)-N-((3-(6-(methyloxy)-3-pyridazinyl)phenyl)methyl)ethanamine]
≤ 10	COc1ccc([C@@H](C)NCc2cccc(-c3ccc(C)nc3)c2)cc1 [(1R)-1-(4-(methyloxy)phenyl)-N-((3-(6-methyl-3-yridinyl)phenyl)methyl)ethanamine]
≤ 10	COc1ccc([C@@H](C)NCc2ccc(OC)c(-c3nccs3)c2)cc1 [(1R)-1-(4-(methyloxy)phenyl)-N-((4-(methyloxy)-3-(1,3-thiazol-2-yl)phenyl)methyl)ethanamine]
≤ 10	COc1ccc([C@@H](C)NCc2ccc(OC)c(-c3cnccn3)c2)cc1 [(1R)-1-(4-(methyloxy)phenyl)-N-((4-(methyloxy)-3-(2-pyrazinyl)phenyl)methyl)ethanamine]
≤ 10	COc1ccc([C@@H](C)NCc2ccc(OC)c(-c3cccnc3)c2)cc1 [(1R)-1-(4-(methyloxy)phenyl)-N-((4-(methyloxy)-3-(3-pyridinyl)phenyl)methyl)ethanamine]
≤ 10	COc1ccc([C@@H](C)NCc2ccc(OC)c(-c3ccsc3)c2)cc1 [(1R)-1-(4-(methyloxy)phenyl)-N-((4-(methyloxy)-3-(3-thienyl)phenyl)methyl)ethanamine]
≤ 10	COc1ccc([C@@H](C)NCc2ccc(OC)c(-c3cncnc3)c2)cc1 [(1R)-1-(4-(methyloxy)phenyl)-N-((4-(methyloxy)-3-(5-pyrimidinyl)phenyl)methyl)ethanamine]
≤ 10	Cc1ccc([C@@H](C)NCc2cccc(-c3ccccn3)c2)cc1 [(1R)-1-(4-methylphenyl)-N-((3-(2-pyridinyl)phenyl)methyl)ethanamine]
≤ 10	Cc1ccc([C@@H](C)NCc2cccc(-c3ccc(C)nc3)c2)cc1 [(1R)-1-(4-methylphenyl)-N-((3-(6-methyl-3-pyridinyl)phenyl)methyl)ethanamine]
≤ 10	C[C@@H](NCc1cccc(-c2cnccn2)c1)c1ccccc1 [(1R)-1-phenyl-N-((3-(2-pyrazinyl)phenyl)methyl)ethanamine]
≤ 10	C[C@@H](NCc1cccc(-c2ccccn2)c1)c1ccccc1 [(1R)-1-phenyl-N-((3-(2-pyridinyl)phenyl)methyl)ethanamine]

The remaining lines, values behind:

SMILES	EC50 [µM]
COc1cccc([C@@H](C)NCc2ccc(OC)c(-c3cccs3)c2)c1 [(1R)-1-(3-(methyloxy)phenyl)-N-((4-(methyloxy)-3-(2-thienyl)phenyl)methyl)ethanamine]	≤ 10
COc1cccc([C@@H](C)NCc2ccc(OC)c(-c3cccnc3)c2)c1 [(1R)-1-(3-(methyloxy)phenyl)-N-((4-(methyloxy)-3-(3-pyridinyl)phenyl)methyl)ethanamine]	≤ 10
COc1cccc([C@@H](C)NCc2ccc(OC)c(-c3ccsc3)c2)c1 [(1R)-1-(3-(methyloxy)phenyl)-N-((4-(methyloxy)-3-(3-thienyl)phenyl)methyl)ethanamine]	≤ 10
COc1cccc([C@@H](C)NCc2ccc(OC)c(-c3nnc(C(F)(F)F)o3)c2)c1 [(1R)-1-(3-(methyloxy)phenyl)-N-((4-(methyloxy)-3-(5-(trifluoromethyl)-1,3,4oxadiazol-2-yl)phenyl)methyl)ethanamine]	≤ 10
COc1cccc([C@@H](C)NCc2ccc(OC)c(-c3cncnc3)c2)c1 [(1R)-1-(3-(methyloxy)phenyl)-N-((4-(methyloxy)-3-(5-pyrimidinyl)phenyl)methyl)ethanamine]	≤ 10
COc1cccc([C@@H](C)NCc2ccc(OC)c(-c3ccc(OCC(F)(F)F)nc3)c2)c1 [(1R)-1-(3-(methyloxy)phenyl)-N-((4-(methyloxy)-3-(6-((2,2,2-trifluoroethyl)oxy)-3-pyridinyl)phenyl)methyl)ethanamine]	≤ 10
COc1cccc([C@@H](C)NCc2ccc(OC)c(-c3ccc(C(F)(F)F)nc3)c2)c1 [(1R)-1-(3-(methyloxy)phenyl)-N-((4-(methyloxy)-3-(6-(trifluoromethyl)-3-pyridinyl)phenyl)methyl)ethanamine]	≤ 10
COc1cccc([C@@H](C)NCc2ccc(OC)c(-c3ccc4ncccc4c3)c2)c1 [(1R)-1-(3-(methyloxy)phenyl)-N-((4-(methyloxy)-3-(6-quinolinyl)phenyl)methyl)ethanamine]	≤ 10
COc1cccc([C@@H](C)NCc2ccc(OC)c(-c3ccc4nccnc4c3)c2)c1 [(1R)-1-(3-(methyloxy)phenyl)-N-((4-(methyloxy)-3-(6-quinoxalinyl)phenyl)methyl)ethanamine]	≤ 10
COc1cccc([C@@H](C)NCc2ccc(OC)c(-c3cccc(OC(F)(F)F)c3)c2)c1 [(1R)-1-(3-(methyloxy)phenyl)-N-((6-(methyloxy)-3′-((trifluoromethyl)oxy)-1,1′-biphenyl-3-yl)methyl)ethanamine]	≤ 10
COc1cccc([C@@H](C)NCc2ccc(OC)c(-c3cccc(C(F)(F)F)c3)c2)c1 [(1R)-1-(3-(methyloxy)phenyl)-N-((6-(methyloxy)-3′-(trifluoromethyl)-1,1′-biphenyl-3-yl)methyl)ethanamine]	≤ 10
COc1cccc([C@@H](C)NCc2ccc(OC)c(-c3ccc(OC(F)(F)F)cc3)c2)c1 [(1R)-1-(3-(methyloxy)phenyl)-N-((6-(methyloxy)-4′-((trifluoromethyl)oxy)-1,1′-biphenyl-3-yl)methyl)ethanamine]	≤ 10
COc1cccc([C@@H](C)NCc2ccc(OC)c(-c3ccc(C(F)(F)F)cc3)c2)c1 [(1R)-1-(3-(methyloxy)phenyl)-N-((6-(methyloxy)-4′-(trifluoromethyl)-1,1′-biphenyl-3-yl)methyl)ethanamine]	≤ 10
